Results reported in PubChem BioAssay AID248 (DTP/NCI, 2004).
Several values for one entry are separate records, joined by “and”; a condition that tells them apart may be missing. Equal values may be shown once. Toxic doses and inconclusive results are not listed. Cut-off read from the data, not from the text of the source: active = T/C of 150% or more; inactive = T/C below 125%.

Tested on: L1210 leukemia ip in BDF1 mice, survival T/C
Test: NCI In Vivo Anticancer Drug Screen. Data for tumor model L1210 Leukemia (intraperitoneal) in B6D2F1 (BDF1) mice
Conditions: endpoint: mean survival time, higher = longer survival
In short: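 Tumor cells were implanted, animals were treated, and survival was followed. The result divides the treated measurement by the vehicle-control measurement.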

[1] = dose: 100.0 mg/kg/injection, schedule: Q01DX009 (ip), vehicle: Klucel (hydroxypropylcellulose) (HPC)
[2] = dose: 100.0 mg/kg/injection, schedule: Q04DX002 (ip), vehicle: Klucel (hydroxypropylcellulose) (HPC)
[3] = dose: 200.0 mg/kg/injection, schedule: Q01DX009 (ip), vehicle: Klucel (hydroxypropylcellulose) (HPC)
[4] = dose: 200.0 mg/kg/injection, schedule: Q04DX002 (ip), vehicle: Klucel (hydroxypropylcellulose) (HPC)
[5] = dose: 400.0 mg/kg/injection, schedule: Q01DX009 (ip), vehicle: Klucel (hydroxypropylcellulose) (HPC)
[6] = dose: 400.0 mg/kg/injection, schedule: Q04DX002 (ip), vehicle: Klucel (hydroxypropylcellulose) (HPC)
[7] = dose: 100.0 mg/kg/injection, schedule: Q04DX003 (ip), vehicle: Klucel (hydroxypropylcellulose) (HPC)
[8] = dose: 200.0 mg/kg/injection, schedule: Q04DX003 (ip), vehicle: Klucel (hydroxypropylcellulose) (HPC)
[9] = dose: 400.0 mg/kg/injection, schedule: Q04DX003 (ip), vehicle: Klucel (hydroxypropylcellulose) (HPC)
[10] = dose: 100.0 mg/kg/injection, schedule: Q01DX001 (ip), vehicle: Klucel (hydroxypropylcellulose) (HPC)
[11] = dose: 200.0 mg/kg/injection, schedule: Q01DX001 (ip), vehicle: Klucel (hydroxypropylcellulose) (HPC)
[12] = dose: 100.0 mg/kg/injection, schedule: Q04DX003 (ip), vehicle: saline with Tween-80
[13] = dose: 200.0 mg/kg/injection, schedule: Q04DX003 (ip), vehicle: saline with Tween-80
[14] = dose: 400.0 mg/kg/injection, schedule: Q04DX003 (ip), vehicle: saline with Tween-80
[15] = dose: 25.0 mg/kg/injection, schedule: Q01DX009 (ip), vehicle: saline with Tween-80
[16] = dose: 50.0 mg/kg/injection, schedule: Q01DX009 (ip), vehicle: saline with Tween-80
[17] = dose: 50.0 mg/kg/injection, schedule: Q04DX003 (ip), vehicle: saline with Tween-80

Measured: T/C

O=C1Nc2ncnn2C1=O
inactive: dose: 100.0 mg/kg/injection, schedule: Q01DX005 (ip), vehicle: Klucel (hydroxypropylcellulose) (HPC) 98 % of control | [1] 101 % of control | [2] 93 % of control | dose: 200.0 mg/kg/injection, schedule: Q01DX005 (ip), vehicle: Klucel (hydroxypropylcellulose) (HPC) 98 % of control | [3] 93 % of control | [4] 96 % of control | dose: 400.0 mg/kg/injection, schedule: Q01DX005 (ip), vehicle: Klucel (hydroxypropylcellulose) (HPC) 98 % of control | [5] 101 % of control | [6] 104 % of control

NC(C(=O)O)c1ccco1 (configuration not stated)
inactive: [7] 103 % of control | [8] 105 % of control | [9] 101 % of control

CCCCCCCCCCCc1n(Cc2ccccc2)cc[n+]1C
inactive: dose: 0.5 mg/kg/injection, schedule: Q01DX001 (ip), vehicle: saline 101 % of control | dose: 0.5 mg/kg/injection, schedule: Q01DX009 (ip), vehicle: acetone 111 % of control | dose: 1.0 mg/kg/injection, schedule: Q01DX001 (ip), vehicle: saline 95 % of control | dose: 1.0 mg/kg/injection, schedule: Q01DX009 (ip), vehicle: acetone 118 % of control | dose: 2.0 mg/kg/injection, schedule: Q01DX001 (ip), vehicle: saline 101 % of control | dose: 2.0 mg/kg/injection, schedule: Q04DX003 (ip), vehicle: saline 95 % of control | dose: 8.0 mg/kg/injection, schedule: Q01DX001 (ip), vehicle: saline 103 % of control

OCCNCCc1ccccc1
inactive: dose: 75.0 mg/kg/injection, schedule: Q01DX009 (ip), vehicle: carboxymethylcellulose (CMC) 104 % of control | dose: 150.0 mg/kg/injection, schedule: Q01DX009 (ip), vehicle: carboxymethylcellulose (CMC) 107 % of control

c1ccc(C2(C3(c4ccccc4)SCCCS3)CN2)cc1 (configuration not stated)
inactive: [10] 101 % of control | [11] 97 % of control

O=C1CCC(=O)N1c1ccc([I+]c2ccc(N3C(=O)CCC3=O)cc2)cc1
inactive: dose: 50.0 mg/kg/injection, schedule: Q01DX001 (ip), vehicle: saline 103 % of control | dose: 100.0 mg/kg/injection, schedule: Q01DX001 (ip), vehicle: saline 103 % of control | dose: 200.0 mg/kg/injection, schedule: Q01DX001 (ip), vehicle: saline 105 % of control | dose: 400.0 mg/kg/injection, schedule: Q01DX001 (ip), vehicle: saline 103 % of control

c1ccc(-c2nnc(-c3ccc4ccc5cccnc5c4n3)nc2-c2ccccc2)cc1
inactive: [12] 93 % of control | [13] 104 % of control | [14] 104 % of control

COc1cc(C2NC(=S)NC2=S)ccc1O (configuration not stated)
inactive: [15] 104 % of control | dose: 25.0 mg/kg/injection, schedule: Q04DX003 (ip), vehicle: saline with Tween-80 94 % of control | [16] 96 % of control | [17] 92 % of control | [12] 94 % of control and 98 % of control

CCN1CCC2CN(C(=S)Nc3ccccc3)CCN2C1=O (configuration not stated)
inactive: [12] 97 % of control | [13] 94 % of control | [14] 91 % of control

CCOC(=O)C(O)(CC)CCC(C)C (configuration not stated)
inactive: [16] 101 % of control | dose: 100.0 mg/kg/injection, schedule: Q01DX009 (ip), vehicle: saline with Tween-80 101 % of control | dose: 200.0 mg/kg/injection, schedule: Q01DX009 (ip), vehicle: saline with Tween-80 111 % of control

Cc1cc(C)nc(NC(=O)Nc2cccc(C(F)(F)F)c2)c1
inactive: [10] 102 % of control | [1] 104 % of control and 113 % of control | [2] 101 % of control and 117 % of control | [7] 94 % of control | [11] 94 % of control | [3] 93 % of control and 109 % of control | [4] 96 % of control and 98 % of control | [8] 111 % of control | dose: 400.0 mg/kg/injection, schedule: Q01DX001 (ip), vehicle: Klucel (hydroxypropylcellulose) (HPC) 98 % of control | [5] 104 % of control and 107 % of control | [6] 98 % of control and 99 % of control | [9] 99 % of control

CC(=O)NCCCCCC(=O)O
inactive: dose: 25.0 mg/kg/injection, schedule: Q01DX009 (ip), vehicle: saline 97 % of control | dose: 50.0 mg/kg/injection, schedule: Q01DX009 (ip), vehicle: saline 105 % of control | dose: 50.0 mg/kg/injection, schedule: Q04DX003 (ip), vehicle: saline 102 % of control | [1] 98 % of control and 90 % of control | dose: 100.0 mg/kg/injection, schedule: Q01DX009 (ip), vehicle: saline 108 % of control | [7] 101 % of control and 88 % of control | dose: 100.0 mg/kg/injection, schedule: Q04DX003 (ip), vehicle: saline 103 % of control | [3] 97 % of control and 101 % of control | dose: 200.0 mg/kg/injection, schedule: Q01DX009 (ip), vehicle: saline 100 % of control | [8] 101 % of control and 90 % of control | dose: 200.0 mg/kg/injection, schedule: Q04DX003 (ip), vehicle: saline 104 % of control | [5] 101 % of control | dose: 400.0 mg/kg/injection, schedule: Q01DX009 (ip), vehicle: saline 100 % of control | [9] 95 % of control and 101 % of control | dose: 400.0 mg/kg/injection, schedule: Q04DX003 (ip), vehicle: saline 96 % of control | dose: 800.0 mg/kg/injection, schedule: Q04DX003 (ip), vehicle: saline 95 % of control

O=C(O)c1c(-c2ccccc2)[nH]c2cc(Cl)ccc2c1=O
inactive: dose: 50.0 mg/kg/injection, schedule: Q01DX001 (ip), vehicle: carboxymethylcellulose (CMC) 113 % of control | dose: 100.0 mg/kg/injection, schedule: Q01DX001 (ip), vehicle: carboxymethylcellulose (CMC) 113 % of control | [1] 112 % of control | [7] 104 % of control | dose: 200.0 mg/kg/injection, schedule: Q01DX001 (ip), vehicle: carboxymethylcellulose (CMC) 107 % of control | [3] 106 % of control | [8] 107 % of control | [9] 104 % of control

O=C1CSc2ccccc2N1
inactive: dose: 12.5 mg/kg/injection, schedule: Q01DX009 (ip), vehicle: saline with Tween-80 94 % of control | [15] 100 % of control | [16] 102 % of control | [17] 103 % of control | [2] 97 % of control | [12] 103 % of control | [4] 95 % of control | [13] 92 % of control | [6] 110 % of control

CSc1nc(Cl)cc(-c2ccccc2)n1
inactive: dose: 200.0 mg/kg/injection, schedule: Q01DX Z (ip), vehicle: methylcellulose (MC) 106 % of control
